{"source": "patent US11478008B2", "about": "“Formulations comprising ratfish liver oil or a product of an enzymatic or chemical glycerolysis processing of ratfish liver oil and supercritical rosemary extract and uses thereof” (UNIVERSIDAD AUTÓNOMA DE MADRID, priority 2016, dated 2022)", "test_system": "human pancreatic cancer cell cultures (line MiaPaca-2)", "assay": "MTT cell viability assay, human pancreatic cancer cells MiaPaca-2", "assay_type": "cell-based", "conditions": "1%", "description": "The antiproliferative activity of the lipid systems (RLO, RLO+MO and GP), formulations with incorporated SRE (RLO+MO+9% SRE and GP+9% SRE) and (digested and non-digested) non-delivered SRE was evaluated in human pancreatic cancer cell cultures (line MiaPaca-2) by means of the MTT method.\nThree independent experiments were performed with different cell strains and on different days. The trend observed in terms of the effect of treatments on cell viability was similar in the 3 experiments.\nThe parameter used to assess the effect of a compound on cell viability is the mean inhibitory concentration (IC50), which is the product concentration inhibiting cell viability by 50%, such that the lower the IC50 of a compound is, the greater its effect will be."}
{"smiles": "O=C1CCCC1", "note": "[cyclopentanone]", "values": [{"measurement": "viability of treated cells", "value": "did not change"}]}
